We go through 30 molecules from US9102648B1, “Bioavailable diacylhydrazine ligands for modulating the expression of exogenous genes via an ecdysone receptor complex” (Intrexon Corporation, priority 2003, dated 2015).

The series deals with T1, Bombyx mori EcR (VP16 fusion, CVBE switch construct) (Bombyx mori, UniProt P49881).
T1 sequence (P49881 86-606): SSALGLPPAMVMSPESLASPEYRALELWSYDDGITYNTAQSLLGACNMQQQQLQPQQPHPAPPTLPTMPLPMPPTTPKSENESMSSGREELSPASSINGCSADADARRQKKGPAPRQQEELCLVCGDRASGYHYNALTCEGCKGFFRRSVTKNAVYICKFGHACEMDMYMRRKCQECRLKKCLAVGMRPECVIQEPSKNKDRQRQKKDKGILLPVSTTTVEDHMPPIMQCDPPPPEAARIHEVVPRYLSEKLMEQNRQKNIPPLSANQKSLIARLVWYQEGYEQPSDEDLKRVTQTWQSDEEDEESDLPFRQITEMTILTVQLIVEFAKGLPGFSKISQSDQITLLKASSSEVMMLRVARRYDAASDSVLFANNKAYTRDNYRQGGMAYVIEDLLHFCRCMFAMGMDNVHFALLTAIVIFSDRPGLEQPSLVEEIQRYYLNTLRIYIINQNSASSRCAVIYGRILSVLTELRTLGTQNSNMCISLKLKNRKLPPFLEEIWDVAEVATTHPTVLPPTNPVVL
T1 sequence (P19793 1-462 partner): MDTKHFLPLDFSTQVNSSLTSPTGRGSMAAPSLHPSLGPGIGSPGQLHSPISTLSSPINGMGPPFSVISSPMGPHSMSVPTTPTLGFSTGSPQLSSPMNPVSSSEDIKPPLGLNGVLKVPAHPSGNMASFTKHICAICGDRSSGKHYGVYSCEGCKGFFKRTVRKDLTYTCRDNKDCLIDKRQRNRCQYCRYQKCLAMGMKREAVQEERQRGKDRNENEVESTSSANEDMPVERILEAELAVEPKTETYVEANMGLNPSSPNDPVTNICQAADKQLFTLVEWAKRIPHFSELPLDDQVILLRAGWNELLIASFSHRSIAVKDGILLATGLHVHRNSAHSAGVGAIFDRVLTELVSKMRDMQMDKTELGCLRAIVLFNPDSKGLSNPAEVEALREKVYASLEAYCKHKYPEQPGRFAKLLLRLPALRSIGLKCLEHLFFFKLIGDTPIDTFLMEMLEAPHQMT
As to the kind of experiment: Z3 Assay (HEK-293 cells with CVBE and 6XEcRE LacZ, β-galactosidase reporter). Particulars: for Fold Induction, Z3 Assay, 3.3 uM: 3.3 uM ligand; for Fold Induction, Z3 Assay, 3.3 uM / Fold Induction, Z3 Assay, 33 uM: ligand treated / DMSO treated cells; for Fold Induction, Z3 Assay, 33 uM: 33 uM ligand; for Z3 assay Rel Max FI: maximum fold induction at any concentration relative to that of GS-E ligand; for fold induction at 3.3 µM: HEK293, read-out: Fold Induction, Z3 Assay, 3.3 uM; for fold induction at 33 µM: HEK293, read-out: Fold Induction, Z3 Assay, 33 uM.

[1] abbreviates: read-out: Z3 assay EC50, HEK-293 Z3 cells, β-galactosidase reporter, average of two wells.

As usually defined, the EC50 is the concentration that produces a half-maximal response.

Like-named read-outs stand apart in the source and are kept apart here.

For `COc1cc(C(=O)N(NC(=O)c2ccc3c(c2C)CCCO3)C(C)(C)C)cc(OC)c1C` [RG-115055], where the note is “average of two wells”, the “Fold Induction, Z3 Assay, 3.3 uM” value was determined as 573 and the “Fold Induction, Z3 Assay, 33 uM” value is given as 617. Further, the “Z3 assay Rel Max FI” value (HEK-293 Z3 cells) turned out to be 0.936. The EC50 under setting [1] amounted to 43 nM.
Consider `CCc1c(OC)cccc1C(=O)NN(C(=O)c1cc(F)c(Cl)cc1Cl)C(C)(C)C` [RG-115302], for which the “Fold Induction, Z3 Assay, 33 uM” value (average of two wells) is listed as 404. Further, under setting [1], the 50% effective concentration (EC50) turned out to be 275 nM.
Regarding `CCc1c(OC)cccc1C(=O)NN(C(=O)c1ccc(Cl)cc1[N+](=O)[O-])C(C)(C)C` [RG-115647], where the note is “average of two wells”, the “Fold Induction, Z3 Assay, 3.3 uM” value is listed as 96 and the “Fold Induction, Z3 Assay, 33 uM” value is 510. Besides, the “Z3 assay Rel Max FI” value (HEK-293 Z3 cells) is on record as 0.923. For the same molecule, the EC50 under setting [1] was 145 nM.
For `CCCC(N(NC(=O)c1cccc(OC)c1C)C(=O)c1cc(C)cc(C)c1)C(C)(C)C` (stereo not shown) [RG-115823] the same measures were 1440, 1050, 0.933 and 20 nM.
As for `CCc1c(C(=O)NN(C(=O)c2cc(OC)c(C)c(OC)c2)C(C)(C)C)ccc2c1OCCO2` [RG-115130], where the note is “average of two wells”, the “Fold Induction, Z3 Assay, 3.3 uM” value is reported as 412 and the “Fold Induction, Z3 Assay, 33 uM” value was determined as 930. Also, the 50% effective concentration (EC50) under setting [1] is 36 nM.
For `CCc1c(OC)cccc1C(=O)NN(C(=O)c1cc(C)cc(C)c1)C(C)(C)CO[Si](C)(C)C(C)(C)C` [RG-115665, 2-ethyl-3-methoxy-benzoic acid N′-[2-(tert-butyl-dimethyl-silanyloxy)-1,1-dimethyl-ethyl]-N′-(3,5-dimethyl-benzoyl)-hydrazide], the EC50 came out at 12200 nM, the fold induction at 3.3 µM is 6 and the fold induction at 33 µM stood at 74. Further, the “Z3 assay Rel Max FI” value (HEK-293 Z3 cells) amounted to 0.09.
The like results for `CCc1c(OC)cccc1C(=O)NN(C(=O)c1cc(C)cc(C)c1)C(C)(C)C=NO` [RG-115258, 2-ethyl-3-methoxy-benzoic acid N′-(3,5-dimethyl-benzoyl)-N′-(2-hydroxyimino-1,1-dimethyl-ethyl)-hydrazide] were, in that order, 646 nM, 382, 1120 and 0.882.
Turning to `COc1cc(C)cc(C(=O)N(NC(=O)c2cccc(OC)c2C)C(C)(C)C)c1` [RG-100767], for the setting “average of two wells”, the “Fold Induction, Z3 Assay, 3.3 uM” value was 825 and the “Fold Induction, Z3 Assay, 33 uM” value was determined as 371. Also, for the setting “HEK-293 Z3 cells”, the “Z3 assay Rel Max FI” value is reported as 0.996. Under setting [1], the 50% effective concentration (EC50) came to 251 nM.
The like results for `COc1cnccc1C(=O)N(NC(=O)c1cccc(O)c1C)C(C)(C)C` [RG-115595] were, in that order, 44, 1067, 0.686 and 5620 nM.
With `CCc1c(OC)cccc1C(=O)NN(C(=O)c1cc(Cl)ccc1OC)C(C)(C)C` [RG-115253], under “average of two wells”, the “Fold Induction, Z3 Assay, 33 uM” value came out at 832. The EC50 under setting [1] amounted to 269 nM.
For `CCc1c(C(=O)NN(C(=O)c2ccccc2OC)C(C)(C)C)ccc2c1OCOC2` [RG-115065] the same measures were 878 and 1480 nM.
For `CCc1c(C(=O)NN(C(=O)c2ccc(Cl)cc2F)C(C)(C)C)ccc2c1OCCO2` [RG-115514], for the setting “average of two wells”, the “Fold Induction, Z3 Assay, 3.3 uM” value came to 383 and the “Fold Induction, Z3 Assay, 33 uM” value stood at 658. For the same molecule, the “Z3 assay Rel Max FI” value (HEK-293 Z3 cells) was found to be 0.970. The EC50 under setting [1] turned out to be 56 nM.
Consider `Cc1c(C(=O)NN(C(=O)c2cc(F)c(F)cc2F)C(C)(C)C)ccc2c1CCCO2` [RG-115229], for which, where the note is “average of two wells”, the “Fold Induction, Z3 Assay, 33 uM” value worked out at 1032. In addition, the EC50 under setting [1] is 427 nM.
As for `CCc1c(OC)cccc1C(=O)NN(C(=O)c1ccccc1OC)C(C)(C)C` [RG-100725], the “Fold Induction, Z3 Assay, 33 uM” value (average of two wells) worked out at 511.
In the case of `Cc1c(C(=O)NN(C(=O)c2cccc(F)c2)C(C)(C)C)ccc2c1CCCO2` [RG-115278], for the setting “average of two wells”, the “Fold Induction, Z3 Assay, 3.3 uM” value amounted to 158 and the “Fold Induction, Z3 Assay, 33 uM” value worked out at 1225. Further, the “Z3 assay Rel Max FI” value (HEK-293 Z3 cells) is 0.893. The EC50 under setting [1] is 257 nM.
Consider `CCc1c(OC)cccc1C(=O)NN(C(=O)c1cc(C)ccc1[N+](=O)[O-])C(C)(C)C` [RG-115162], for which, under “average of two wells”, the “Fold Induction, Z3 Assay, 3.3 uM” value came out at 334 and the “Fold Induction, Z3 Assay, 33 uM” value stood at 772. For the same molecule, the “Z3 assay Rel Max FI” value (HEK-293 Z3 cells) amounted to 0.988. Moreover, the EC50 under setting [1] was 69 nM.
On to `Cc1c(C(=O)NN(C(=O)c2cc(F)c(F)c(F)c2F)C(C)(C)C)ccc2c1CCCO2` [RG-115518], for which, for the setting “average of two wells”, the “Fold Induction, Z3 Assay, 3.3 uM” value came to 232 and the “Fold Induction, Z3 Assay, 33 uM” value came out at 803. Also, the “Z3 assay Rel Max FI” value (HEK-293 Z3 cells) was found to be 0.834. The 50% effective concentration (EC50) under setting [1] amounted to 257 nM.
The like results for `CCCC(N(NC(=O)c1cccc(OC)c1C)C(=O)c1cc(OC)c(C)c(OC)c1)C(C)(C)C` (stereo not shown) [RG-115824] were, in that order, 895, 737, 0.806 and 46 nM.
For `Cc1ccc([N+](=O)[O-])c(C(=O)N(NC(=O)c2ccc3c(c2C)OCCO3)C(C)(C)C)c1` [RG-115384], for the setting “average of two wells”, the “Fold Induction, Z3 Assay, 3.3 uM” value is 337. For the same molecule, the “Z3 assay Rel Max FI” value (HEK-293 Z3 cells) was determined as 0.904. In addition, under setting [1], the EC50 was 166 nM.
As to `CC(=O)c1ccc(C(=O)NN(C(=O)c2cc(C(=O)O)cc(C(=O)O)c2)C(C)(C)C)cc1` [RG-100150], under “average of two wells”, the “Fold Induction, Z3 Assay, 33 uM” value was 1.
With `CCc1c(C(=O)NN(C(=O)c2ccccc2OC)C(C)(C)C)ccc2c1OCCO2` [RG-115244], under “average of two wells”, the “Fold Induction, Z3 Assay, 3.3 uM” value came to 283 and the “Fold Induction, Z3 Assay, 33 uM” value stood at 816. Moreover, the “Z3 assay Rel Max FI” value (HEK-293 Z3 cells) is recorded as 0.959. Besides, the EC50 under setting [1] was 85 nM.
The like results for `COc1ccc(C)cc1C(=O)N(NC(=O)c1cccc(OC)c1C)C(C)(C)C` [RG-100766] were, in that order, 921, 474, 1.194 and 174 nM.
With `Cc1c(C(=O)NN(C(=O)c2cc(F)c(Cl)cc2Cl)C(C)(C)C)ccc2c1CCCO2` [RG-115539], the “Fold Induction, Z3 Assay, 33 uM” value (average of two wells) is 339. Moreover, under setting [1], the concentration for a half-maximal effect (EC50) was 151 nM.
In the case of `CCc1c(OC)cccc1C(=O)NN(C(=O)c1cc(C)cc(C)c1)C(CC)C(C)(C)C` (stereo not shown) [RG-115832], for the setting “average of two wells”, the “Fold Induction, Z3 Assay, 3.3 uM” value was 1564 and the “Fold Induction, Z3 Assay, 33 uM” value was 621. Besides, the “Z3 assay Rel Max FI” value (HEK-293 Z3 cells) turned out to be 1.002. For the same molecule, the 50% effective concentration (EC50) under setting [1] came out at 37 nM.
In the case of `Cc1c(C(=O)NN(C(=O)c2ccc(F)cc2)C(C)(C)C)ccc2c1OCCO2` [RG-100425], where the note is “average of two wells”, the “Fold Induction, Z3 Assay, 3.3 uM” value is reported as 1128 and the “Fold Induction, Z3 Assay, 33 uM” value was 592. In addition, the “Z3 assay Rel Max FI” value (HEK-293 Z3 cells) was 1.180. Further, under setting [1], the EC50 amounted to 99 nM.
`CCC(N(NC(=O)c1cccc(OC)c1C)C(=O)c1cc(C)cc(C)c1)C(C)(C)C` (stereo not shown) [RG-115819, 3,5-dimethyl-benzoic acid N-(1-ethyl-2,2-dimethyl-propyl)-N′-(3-methoxy-2-methyl-benzoyl)-hydrazide]: a half-maximal response (EC50) required 42 nM, the fold induction at 3.3 µM worked out at 1430 and the fold induction at 33 µM came out at 722. For the same molecule, the “Z3 assay Rel Max FI” value (HEK-293 Z3 cells) is listed as 0.915.
For `COc1ccc(Cl)cc1C(=O)N(NC(=O)c1ccc2c(c1C)CCCO2)C(C)(C)C` [RG-115551], the “Fold Induction, Z3 Assay, 33 uM” value (average of two wells) turned out to be 470. Besides, the EC50 under setting [1] came to 398 nM.
As to `CCc1c(C(=O)NN(C(=O)c2ccccc2OC)C(C)(C)C)ccc2c1OCCO2` [RG-100690], for the setting “average of two wells”, the “Fold Induction, Z3 Assay, 3.3 uM” value was 779 and the “Fold Induction, Z3 Assay, 33 uM” value turned out to be 475. The “Z3 assay Rel Max FI” value (HEK-293 Z3 cells) turned out to be 1.008. In addition, the EC50 under setting [1] is 240 nM.
For `CCCC(N(NC(=O)c1cccc(OC)c1CC)C(=O)c1cc(OC)c(C)c(OC)c1)C(C)(C)C` (stereo not shown) [RG-115829, 3,5-Dimethoxy-4-methyl-benzoic acid N-(1-tert-butyl-butyl)-N′-(2-ethyl-3-methoxy-benzoyl)-hydrazide], the EC50 was found to be 58 nM, the fold induction at 3.3 µM was determined as 1440 and the fold induction at 33 µM amounted to 319. Moreover, the “Z3 assay Rel Max FI” value (HEK-293 Z3 cells) worked out at 0.937.
As to `Cc1c(C(=O)NN(C(=O)c2ccc(F)c(F)c2)C(C)(C)C)ccc2c1CCCO2` [RG-115416], where the note is “average of two wells”, the “Fold Induction, Z3 Assay, 3.3 uM” value came to 164 and the “Fold Induction, Z3 Assay, 33 uM” value is recorded as 1116. For the same molecule, under “HEK-293 Z3 cells”, the “Z3 assay Rel Max FI” value came out at 1.869. The concentration giving a half-maximal response (EC50) under setting [1] was 91 nM.
